Experiments:
[1] = tested on: gastric acid secretion in a pylorus ligated rat; test: Inhibitory effect on the gastric acid secretion in a pylorus ligated rat; assay type: in vivo, SD rats; settings: 4 hours
Protocol: Inhibitory effect on the gastric acid secretion in a pylorus ligated rat Male 7-week SD rats were fasted for 24 hours, with a fast of water beginning in early morning of the day when the experiments were performed. The rats were classified into groups each consisting of five rats, such that all the groups have substantially the same average weight. The experiments were performed according to a method of Shay et. al. (Shay, H. et. al., Gastroenterology, Vol. 5, pp43, 1945). Described more specifically, each of the rats was subjected to a light anesthesia by ether, and the hair of the abdomen of each rat was clipped. Then, the abdomen was incised over a length of 1.5 cm along the center line downwards from a portion 1 cm below the xiphoid of the rat, and the stomach was taken out of the body. A portion connecting the pylorus and the duodenum was ligated by suturing thread. […] After the administration, the skin of the abdominal muscle and abdomen was sutured. The rats were kept in cages and fasted for 4 hours with a fast of water. Then, the rats were sacrificed by ether, and the stomach of each rat was removed. The gastric content was obtained from a small hole formed through the stomach of each rat and was collected in a test tube. […] An amount of supernatant was measured as a volume of gastric acid, and a total acidity of the gastric acid was also measured. A volume of gastric acid inhibitory percent (%) and a total acidity inhibitory percent (%) were calculated in the same manner as the ulcer inhibitory percent was calculated. The total acidity was obtained as a product of the amount of gastric acid secreted for 4 hours and the acidity per 1 mL of the gastric acid which was subjected to neutralization titration by an aqueous solution of 0.01N sodium hydroxide.

[2] = tested on: bFGF mRNA; test: Effect on additional expression of bFGF mRNA in RGM1 cells (RT-PCR, band intensity); assay type: cell-based, rat; parameters: key: ++: the expression of the bFGF mRNA in the imidazoline-treated cells was considerably increased; +: the expression of the bFGF mRNA was increased to some extent; settings: 48 hours, vs cells without the derivative
Description: Effect of imidazoline derivatives on the additional expression of the bFGF
There will be next explained an effect of the imidazoline derivatives in vitro.
Initially, there will be explained an effect of the imidazoline derivative on the additional expression of bFGF in the cells cultured. The reverse transcription-polymerase chain reaction (PCR) was used to explain the effects of imidazoline derivatives on the additional expression of bFGF, and then the PCR products were subjected to electrophoresis to confirm a bFGF band.
An established rat gastric mucosal epithelial cell line RGM1 was seeded in petri dishes (1×10^6 cells/dish), in the presence of D-MEM/Ham 12 (1:1) mixed medium containing 20% fetal calf serum. After 24 hours, the imidazoline derivatives as the specimen drugs according to the present invention were applied in the culture medium, and the cells were cultured for 48 hours. The compounds prepared in Examples 1 and 14 were used as the specimen drugs. Cultures were then supplemented with the compounds in final concentrations (10 μM and 100 μM for the compound of Example 1, and 3 μM, 10 μM and 100 μM for the compound of Example 14).
From the cultured cells of each sample subjected to the above-described processing by the specimen drugs, total cellular RNA was extracted according to Acid Guanidinium Thiocyanate-Phenol-Chloroform method (AGPC). Described more specifically, after cultivation with the above compounds in the culture medium, the culture supernatant was completely removed by suction. To the cells of each sample left in the petri dish, 500 μL of Solution D (consisting of: 4M of guanidinethiocyanate; 25 mM of sodium citrate; 0.5% sarkosyl solution, 0.1M of 2-mercaptoethanol) was added, and the cells were scraped with rubber policeman (available from SUMITOMO BAKELITE CO., LTD.). The thus obtained cell suspension was transfered into a micro centrifuge tube, and there were successively added 50 μL of 2M sodium acetate (pH 4.0), 500 μL of water-saturated phenol and 100 μL of chloroform-isoamyl alcohol (49:1). The suspension was mixed each time the above-described substances were added. The suspension was placed on ice for 15 minutes after it was intensely shaken for 1 minute. Then, the suspension was centrifuged at 10000 rpm for 20 minutes at 4° C. The aqueous layer (upper layer) was transfered into another micro centrifuge tube, and was intimately mixed with an equivalent amount of isopropanol. After the mixture was kept at -20° C. for one hour, it was centrifuged at 10000 rpm for 20 minutes at 4° C. After the centrifugation, the upper layer was discarded, and a precipitate of mRNA was completely dissolved in 200 μL of Solution D. The thus obtained solution was mixed again with an equivalent amount of isopropanol and the mixture was kept at -20° C. for one hour. The mixture was then subjected to centrifugation for 20 minutes at 4° C. and 10000 rpm. After the centrifugation, the supernatant was discarded, and the precipitate was centrifuged at 10000 rpm for 10 minutes at 4° C. The supernatant was discarded, while the precipitate was dried in vacuo for 5 minutes. The total RNA was dissolved in 50 μL of distilled water processed by diethyl pyrocarbonate (DEPC). The concentration of total RNA was measured on the basis of its absorbance at 260 nm by ultraviolet spectrum.
The CDNA synthesis was performed by means of Reverse Transcriptase using the above obtained total RNA as a template. As a primer, a random primer was employed. […]

[3] = tested on: wound in rat; test: Healing effect on wound in rat; assay type: in vivo, SD rats; settings: for Healing days / Healing Index: 15 days; for effect on healing days and Healing Index (in words): TABLES 7 and 8
Protocol: Healing Effect on wound in rat
Male 7-week SD rats were classified into groups each consisting of 6-7 rats, such that all the groups have substantially the same average weight. The experiment was performed on the rats according to a method of Tsurumi et al. (Oyo Yakuri, Vol. 7, pp833, 1973). Initially, the rats were subjected to an anesthesia with pentobarbital. The hair of the back of each rat was clipped, and the skin was disinfected with 70% ethanol. Then, the skin was lightly pulled and punched off in a direction from the right to the left by means of a punch whose diameter is 10 mm, so as to form two open wounds on portions of the back of the rat which are symmetrical to each other with respect to the center line of the back. The compounds of Examples indicated in the following TABLES 7 and 8 were used as specimen drugs, and orally administered once a day to each of the rats with doses indicated in the TABLES 7 and 8. The oral administration continued for 15 consecutive days, beginning from the first day when the wounds were formed on the back of each rat.
To clarify the healing effect on the wounds, an Healing Index and healing days were obtained in the following manner. Initially, the lengths of a major axis and a minor axis of each wound formed on the back were measured using calipers. On the basis of the measured length values, the area of each wound was calculated as the area of an ellipse. The Healing Index was obtained according to a method of Nakano et al. (Oyo Yakuri, Vol. 47, pp29, 1994). Described more specifically, a ratio of area of each wound was chronologically represented in a graph, and an area of the lower part of a curve in the graph during a period from the fifth day to the fifteenth day after the wounds were formed was obtained as the Healing Index. […] The healing days were obtained as the number of the days that were required for the wounds to be completely covered with regenerated epidermises. As for the wound that was healed in more than 15 days, the healing days were obtained as 16 days.

[4] = tested on: bFGF; test: Production amount of bFGF in RGM1 culture supernatant (ELISA); assay type: cell-based, Wistar rat; settings: not stated which
Protocol: Effect of imidazoline derivatives on the additional expression of bFGF
Initially, RGM1 cells which are derived from a gastric mucosa epithelial cell of a Wistar rat were seeded into 24 well plates (2×10^4 cells/dish, 1 mL/well), and cultured for 24 hours. As the imidazoline derivative according to the present invention, the compound obtained in Example 14 was used. The compound was applied to the cells in final concentrations of 3 μM, 10 μM and 30 μM. After 24 hours, the culture supernatants which correspond to the respective concentration values were collected, and analyzed using bFGF ELISA kit. Similarly, the culture supernatants were collected 48 hours after the application of the compound. Described more specifically, 50 μL of each culture supernatant was applied to a 96 well microplate coated with bFGF monoclonal antibody. The plate was incubated for a predetermined time so that the bFGF contained in each culture supernatant was bonded to the bFGF monoclonal antibody. Thereafter, each supernatant was reacted with horseradish peroxidase conjugated antibody which is able to recognize another epitope of the bFGF, so as to form, on the 96 well microplate, a sandwich type composite body consisting of immobilized antibody (bFGF monoclonal antibody), antigen (bFGF), and HRP linked antibody. Subsequently, HRP linked antibody of the composite body was colored using o-phenylenediamine and H2 O2. The reaction was terminated by using sulfuric acid after a predetermined time has elapsed. Then, the absorbance of reactant at 490 nm was measured using a micro-platereader. The production amount of the bFGF was obtained for each culture supernatant, on the basis of the measured absorbance values, according to a standard curve prepared for a standard bFGF of a human body.

[5] = tested on: water-immersion restraint stress-induced gastric ulcer; test: Inhibitory effect on water-immersion restraint stress-induced gastric ulcer; assay type: in vivo, SD rats; settings: 10 mg/kg oral, 30 min before stress
Protocol: Inhibitory effect on water-immersion restraint stress-induced gastric ulcer
Male 7-week SD rats were fasted for 24 hours, with a fast of water beginning in early morning of the day when the experiments were performed. The rats were classified into groups each consisting of five rats, such that all the groups have substantially the same average weight. Thirty minutes before giving a stress to the rats, the compounds of the Examples indicated in TABLE 3 were orally administered as specimen drugs to the rats, with a dose of 10 mg/kg. The rats were then kept in stress cages, and were given a stress by immersing the cages in a water bath kept at a substantially constant temperature of 23°±1° C., such that the water level was at the height of the xiphoid of the rats. Seven hours later, the specimen rats were sacrificed by ether, and the gastric mucosa of each rat was semi-fixed with 2% formaline. The longitudinal length of the damaged area of the gastric mucosa was measured. A sum of the measured length values of the rats of each group was calculated as an ulcer index. An anti-ulcer or ulcer inhibitory percent (%) was calculated as {1-(ulcer index of each group of specimen rats)/(ulcer index of non-specimen group)}×100.

CN/C(=N/CCSCc1nc[nH]c1C)NC#N [cimetidine]
Total acidity Inhibitory percent ([1]; 10 mg/kg intraduodenal): 27.7% | Volume of Gastric acid Inhibitory percent ([1]; 10 mg/kg intraduodenal): 22.7% | Total acidity Inhibitory percent ([1]; 30 mg/kg intraduodenal): 51.8% | Volume of Gastric acid Inhibitory percent ([1]; 30 mg/kg intraduodenal): 31.2% | Total acidity Inhibitory percent ([1]; 100 mg/kg intraduodenal): 76.1% | Volume of Gastric acid Inhibitory percent ([1]; 100 mg/kg intraduodenal): 52.8%

CC(C)CN(C)c1ccccc1C[S+]([O-])C1=NC(C)(C)C(=S)N1 (centres unmarked) [Example 14, 2-(2-N-isobutyl-N-methylaminobenzylsulfinyl)-5,5-dimethylimidazolin-4-thione]
Band Intensity ([2]; 3 μM): ++ | Band Intensity ([2]; 10 μM): ++ | Band Intensity ([2]; 100 μM): ++ | Healing days ([3]; TABLE 8, 50 mg/kg oral once a day, control 14.3 ± 0.37): 13.5 ± 0.42 days | Healing Index ([3]; TABLE 8, 50 mg/kg oral once a day, control 152.0 ± 9.5): 116.5 ± 7.0 | Healing days ([3]; TABLE 8, 100 mg/kg oral once a day, control 14.3 ± 0.37): 13.6 ± 0.44 days | Healing Index ([3]; TABLE 8, 100 mg/kg oral once a day, control 152.0 ± 9.5): 126.5 ± 8.3 | effect on healing days and Healing Index (in words) [3]: effective to reduce the healing days and lower the Healing Index | Production amount of bFGF ([4]; concentration of drug 3, 24 or 48 hours): 15 pg/mL | Production amount of bFGF ([4]; concentration of drug 10, 24 or 48 hours): 29 pg/mL | Production amount of bFGF ([4]; concentration of drug 30, 24 or 48 hours): 36 pg/mL

CC1(C)N=C([S+]([O-])Cc2ccccc2NC(=O)C(F)(F)F)NC1=S (centres unmarked) [Example 1, 2-(2-N-trifluoroacetylaminobenzylsulfinyl)-5,5-dimethylimidazolin-4-thione]
Band Intensity ([2]; 10 μM): + | Band Intensity ([2]; 100 μM): + | Healing days ([3]; TABLE 7, 50 mg/kg oral once a day, control 15.1 ± 0.22): 14.4 ± 0.38 days | Healing Index ([3]; TABLE 7, 50 mg/kg oral once a day, control 188.3 ± 18.2): 183.2 ± 11.2 | Healing days ([3]; TABLE 7, 100 mg/kg oral once a day, control 15.1 ± 0.22): 14.2 ± 0.37 days | Healing Index ([3]; TABLE 7, 100 mg/kg oral once a day, control 188.3 ± 18.2): 157.5 ± 18.9 | effect on healing days and Healing Index (in words) [3]: effective to reduce the healing days and lower the Healing Index

CC1(C)N=C([S+]([O-])Cc2ccccc2NCC(F)(F)F)NC1=S (centres unmarked) [Example 12, 2-[2-N-(2,2,2-trifluoroethyl)aminobenzylsulfinyl]-5,5-dimethylimidazolin-4-thione]
Inhibitory Percent (ulcer) [5]: 46.6%

CCC1(CC)N=C([S+]([O-])Cc2ccccc2N(C)C)NC1=S (centres unmarked) [Example 7, 2-(2-dimethylaminobenzylsulfinyl)-5,5-diethylimidazolin-4-thione]
Inhibitory Percent (ulcer) [5]: 53.9%

From US5750552A, “Imidazoline derivative, possible tautomer thereof, and vulnerary including such derivative or tautomer” (Arax Co., Ltd., priority 1995, dated 1998)
